Data reported in patent publication US12319700B2, “Monohydrate potassium salt of a thienopyridone derivative and its preparation process” (POXEL, priority 2018, dated 2025).

Assays:
[1] = system: diet-induced obesity non-alcoholic steatohepatitis (DIO-NASH) mouse model; assay: Diet-induced obesity NASH (DIO-NASH) mouse model: effects on liver and adipose tissue metabolism; assay type: in vivo; details: 8 weeks; for change of liver weight compared to ctrl group / decrease in hepatic stellate cell activation (aSMA positive staining) / decrease in plasma free fatty acid level / increase of PGCl-α protein expression in AT / reduction of fat pad mass / reduction of liver TG content / hormone-sensitive lipase P-HSLser565 / down-regulation of fibrotic gene expression (type I collagen): p<0.01; for hormone-sensitive lipase P-HSLser563 / hormone-sensitive lipase P-HSLser565: adipose tissue; for down-regulation of fibrotic gene expression (type I collagen): liver
Protocol: (§1) • The effects of the monohydrate potassium salt of formula (I) (or “Compound (I)”) on liver and adipose tissue (AT) metabolism in a diet-induced obesity non-alcoholic steatohepatitis (DIO-NASH) mouse model are reported here.
(§2) After 41 weeks, only DIO-NASH mice with biopsy-confirmed steatosis (score ≥2) and fibrosis (stage ≥1) were included and received orally (n=12) vehicle (ctrl), compound (I) 35 or 75 mg/kg twice daily for 8 weeks.

AMPK = AMPK activity (P-AMPK/AMPK) in liver and visceral adipose tissue of DIO-NASH mice; assay type: in vivo, mouse; details: 8 weeks; for increase of AMPK activity in the liver (P-AMPK/AMPK): p<0.05
Protocol: as §1, §2

ob/ob mice [2] = assay: Dyslipidemia in male obese diabetic dyslipidemic ob/ob mice, 5 weeks of treatment; assay type: in vivo, mouse
Protocol: (§3) Effects of Compound (I) in male obese diabetic dyslipidemic ob/ob mice after 5 weeks of treatment.
(§4) Compound (I) was administered at 25, 50 and 100 mg/kg twice a day by oral route in carboxy methylcellulose 0.5%/Tween 80 (98/2) (n=10). A group of ob/ob mice was treated with carboxy methylcellulose 0.5%/Tween 80 (98/2) as a control group.

ob/ob mice [3] = assay: Body weight in male obese diabetic dyslipidemic ob/ob mice, 5 weeks of treatment; assay type: in vivo, mouse
Protocol: as §3, §4

[4] = system: Spontaneous Hypertensive Rat (SHR); assay: Arterial pressure by telemetry in conscious unrestrained Spontaneous Hypertensive Rat (SHR); assay type: in vivo; details: 150 mg/kg bid for 5 days, over 24 h on the 5th day
Protocol: The effects of Compound (I) on arterial pressure was measured in conscious unrestrained well-known rat model of hypertension, the Spontaneous Hypertensive Rat (SHR), using telemetry. SHR aged of 21-22 weeks present a higher arterial pressure compared to healthy Wistar rats: systolic arterial pressure was 200 mmHg vs 120 mmHg in Wistar rats.
Four male SHR were submitted to surgery to implant a blood pressure catheter into the abdominal aorta. The telemetry transmitter was attached to the peritoneum. Ten days after recovery, the same animal received vehicle or Compound (I) 150 mg/kg bid administered for 5 days, 5 weeks apart. Systolic, diastolic and mean arterial pressures were recorded during 24 h, the 5th day of treatment.

[5] = 50 mg/kg twice a day oral, p<0.001
[6] = 100 mg/kg twice a day oral, p<0.001

O=c1[nH]c2sc(Cl)c(-c3ccc4c(c3O)CCCC4)c2c([O-])c1-c1ccccc1.[K+] [Compound (I), monohydrate potassium salt of 2-chloro-4-hydroxy-3-(5-hydroxytetralin-6-yl)-5-phenyl-7H-thieno[2,3-b]pyridin-6-one]
reduction of NAFLD Activity Score (NAS) ([1]; 35 mg/kg orally twice daily, from 6.6, p<0.01): −32% | change of liver weight compared to ctrl group ([1]; 35 mg/kg orally twice daily): −23% | decrease in hepatic stellate cell activation (aSMA positive staining) ([1]; 35 mg/kg orally twice daily): −34% | decrease in plasma free fatty acid level ([1]; 35 mg/kg orally twice daily): −37% | increase of PGCl-α protein expression in AT ([1]; 35 mg/kg orally twice daily): +321% | reduction of fat pad mass ([1]; 35 mg/kg orally twice daily): −25% | reduction of liver TG content ([1]; 35 mg/kg orally twice daily): −36% | NAFLD Activity Score (NAS) after treatment ([1]; 35 mg/kg orally twice daily, from 6.6): 4.5 | reduction of NAFLD Activity Score (NAS) ([1]; 75 mg/kg orally twice daily, from 6.7, p<0.01): −44% | change of liver weight compared to ctrl group ([1]; 75 mg/kg orally twice daily): −33% | decrease in hepatic stellate cell activation (aSMA positive staining) ([1]; 75 mg/kg orally twice daily): −39% | decrease in plasma free fatty acid level ([1]; 75 mg/kg orally twice daily): −38% | increase of PGCl-α protein expression in AT ([1]; 75 mg/kg orally twice daily): +409% | reduction of fat pad mass ([1]; 75 mg/kg orally twice daily): −37% | reduction of liver TG content ([1]; 75 mg/kg orally twice daily): −42% | decrease of MCP-1 gene expression in AT ([1]; 75 mg/kg orally twice daily, p<0.05): −55% | NAFLD Activity Score (NAS) after treatment ([1]; 75 mg/kg orally twice daily, from 6.7): 3.8 | hormone-sensitive lipase P-HSLser563 ([1]; 35 mg/kg orally twice daily): −67% | hormone-sensitive lipase P-HSLser565 ([1]; 35 mg/kg orally twice daily): +416% | hormone-sensitive lipase P-HSLser563 ([1]; 75 mg/kg orally twice daily): −52% | hormone-sensitive lipase P-HSLser565 ([1]; 75 mg/kg orally twice daily): +425% | down-regulation of fibrotic gene expression (type I collagen) ([1]; 35 mg/kg orally twice daily): −65% | down-regulation of fibrotic gene expression (type I collagen) ([1]; 75 mg/kg orally twice daily): −68% | AMPK activation in visceral AT (P-AMPK/AMPK) (AMPK; 35 mg/kg orally twice daily, ns): +130% | increase of AMPK activity in the liver (P-AMPK/AMPK) (AMPK; 35 mg/kg orally twice daily): +128% | AMPK activation in visceral AT (P-AMPK/AMPK) (AMPK; 75 mg/kg orally twice daily, p<0.01): +152% | increase of AMPK activity in the liver (P-AMPK/AMPK) (AMPK; 75 mg/kg orally twice daily): +143% | decrease of plasma FFA (ob/ob mice [2]; 25 mg/kg twice a day oral, NS): −14% | decrease of plasma triglyceride (ob/ob mice [2]; 25 mg/kg twice a day oral, NS): −19% | increase in HDL cholesterol (ob/ob mice [2]; 25 mg/kg twice a day oral, NS): +12% | decrease of plasma triglyceride (ob/ob mice [2]; [5]): −40% | increase in HDL cholesterol (ob/ob mice [2]; [5]): +31% | decrease of plasma FFA (ob/ob mice [2]; 50 mg/kg twice a day oral, p<0.05): −35% | decrease of plasma FFA (ob/ob mice [2]; 100 mg/kg twice a day oral, NS): −21% | decrease of plasma triglyceride (ob/ob mice [2]; [6]): −43% | increase in HDL cholesterol (ob/ob mice [2]; [6]): +32% | decrease of body weight compared to day 1 (ob/ob mice [3]; 25 mg/kg twice a day oral): −17% | decrease of body weight compared to day 1 (ob/ob mice [3]; 50 mg/kg twice a day oral): −24% | reduction of diastolic arterial pressure (DAP) compared to vehicle-treated SHR [4]: −17 mmHg | reduction of mean arterial pressure (MAP) compared to vehicle-treated SHR [4]: −18 mmHg | reduction of systolic arterial pressure (SAP) compared to vehicle-treated SHR [4]: −19 mmHg
